Data taken from patent publication US11384071B2, “Inhibitors of mechanotransduction to treat pain and modulate touch perception” (Max-Delbrück-Centrum für Molekulare Medizin in der …, priority 2016, dated 2022).

How the values were obtained:
[1] = target: T1, STOML2 (Mus musculus, UniProt Q99JB2); test: BiFC assay of STOML2 self-association; format: cell-based
T1 construct: expressed in transfected cells; host or cells: HEK293 (general statement on the BiFC assay)
Description: FIG. 8: Effects of STOML3 modulating molecules on other Stomatin-domain proteins. (a) BiFC signal development observed when cells were transfected with Stomatin-VC/-VN, STOML1-VC/-VN, STOML2-VC/-VN, STOML3-VC/-VN or Podocin-VC/-VN expression constructs respectively. […] (b) OB-1 was tested at two different concentrations (2 μm and 20 μm) using the BiFC assay where wild type STOML3 was used as both bait and prey.
In mammals STOML3 belongs to a family of five structurally conserved membrane proteins, including stomatin, STOML1, STOML2, and podocin^10,12-16, all of which self-associate via their stomatin-domain (FIG. 8a)^10. Self-association of stomatin-domain proteins can be monitored in HEK293 cells using Bimolecular Fluorescence Complementation (BiFC) whereby N- and C-terminal halves of the YFP molecule are tagged to the prey and bait protein STOML3^2,17 (FIG. 1a). Irreversible association of the YFP fragments produces fluorescence that increases linearly over time (FIG. 1b).

[2] = system: cutaneous sensory afferents of the saphenous nerve; test: Ex vivo skin-nerve preparation after local injection into the paw; format: in vivo, mouse
Description: Mice were killed by CO2 inhalation for 2-4 min followed by cervical dislocation. The saphenous nerve and the shaved skin of the hind limb were dissected free and placed in an organ bath. The chamber was perfused with a synthetic interstitial fluid (SIF buffer) the composition of which was (in mM): NaCl, 123; KCl, 3.5; MgSO4, 0.7; NaH2PO4, 1.7; CaCl2), 2.0; sodium gluconate, 9.5; glucose, 5.5; sucrose, 7.5; and HEPES, 10 at a pH of 7.4. The skin was placed with the corium side up in the organ bath. The nerve was placed in an adjacent chamber on a mirror to aid fiber teasing under a stereomicroscope. Fine filaments were teased from the saphenous nerve and placed on the recording electrode.
For the electrical search protocol a micro electrode (1 MΩ) was gently maneuvered to contact the epineurium of the nerve trunk and an electrical stimulation was delivered at a one second interval with square wave pulses of […] duration. […] The electrical nerve stimulation was done at 2 distant sites of the saphenous nerve to trace electrically identified units to their receptive fields. Mechanical sensitivity of single units was tested by mechanical stimulation with a glass rod. For the mechanical search protocol, single units were identified by gentle mechanical stimulation of their receptive field with a glass rod. Mechanically-evoked spikes were visualized and the template saved in an oscilloscope. Then, a sharp tungsten metal electrode was placed in the receptive field and an electrically evoked spike was elicited with suprathreshold current pulses and the electrical latency, the time from the stimulation artifact to spike, was recorded. The distance between the stimulating and recording electrode was designated as the conduction distance. For each isolated fiber the conduction velocity was calculated by dividing conduction distance over electrical latency for the spike.
A computer-controlled nanomotor (Kleindiek, Reutlingen, Germany) was used to apply controlled displacement stimuli of known amplitude and velocity. The probe was a stainless steel metal rod and the diameter of the flat circular contact area was 0.8 mm containing a force transducer (Kleindiek, Reutlingen, Germany). The signal driving the movement of the linear motor and raw electrophysiological data were collected with a Powerlab 4.0 system (ADInstruments) and spikes were discriminated off-line with the spike histogram extension of the software.
We made subcutaneous injections of the OB-1 compound (250-500 pmol per paw) into the hairy skin of the mouse lateral foot innervated by the saphenous nerve and recorded from sensory afferents 3 h later using an ex vivo skin—nerve preparation^5,25.

T1 sequence (Q99JB2 29-353): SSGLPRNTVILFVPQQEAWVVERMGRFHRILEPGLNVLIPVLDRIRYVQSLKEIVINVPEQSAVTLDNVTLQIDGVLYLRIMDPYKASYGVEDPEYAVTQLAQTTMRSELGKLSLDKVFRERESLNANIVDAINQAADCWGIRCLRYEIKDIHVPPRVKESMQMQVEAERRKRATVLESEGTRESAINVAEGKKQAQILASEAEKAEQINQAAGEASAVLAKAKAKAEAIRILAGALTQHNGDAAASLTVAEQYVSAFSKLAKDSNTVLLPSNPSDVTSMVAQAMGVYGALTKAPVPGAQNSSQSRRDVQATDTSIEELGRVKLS

CCOC(=O)c1c(-c2ccccc2)oc2ccc(Oc3c([N+](=O)[O-])ncn3C)cc12 [OB-1, Ethyl 5-((1-methyl-4-nitro-1H-imidazol-5-yl)oxy)-2-phenylbenzofuran-3-carboxylate]
self-association of STOML2 (BiFC) [1]: effective inhibitor | fibers for which no mechanosensitive receptive field could be found (printed Aβ-fibers) ([2]; 8/38 fibers vs 5% in controls, not significantly different): 21% | Aβ-fibers lacking a mechanosensitive receptive field ([2]; 3 h after 250-500 pmol per paw s.c., 19/44 fibers, vehicle less than 7%): over 40% | proportion of C-fibers that lack a mechanosensitive receptive field ([2]; 3 h after local treatment): no change | firing rates of C-mechanonociceptors (C-Ms) to suprathreshold mechanical stimuli ([2]; OB-1 treated skin): not significantly attenuated | proportion of mechanoreceptor types and mechanosensitivity of remaining Aβ-fiber mechanoreceptors (RAMs, SAMs) ([2]; OB-1 treated skin vs controls): unchanged | mechanical threshold for activation of C-mechanoheat fibers ([2]; OB-1 treated skin, vehicle 106.9±17.4 mN): 196.5±35.6 mN | stimulus response function of C-MH fibers ([2]; ascending displacements 32-1024 μm, vs vehicle): significantly less responsive | mechanosensitivity of A-mechanonociceptors (AM) ([2]; displacements 32-1024 μm): no changes | proportion of Aβ-fibers insensitive to mechanical stimuli ([2]; female mice as in male mice): almost identical proportion | mean force thresholds for C-M fiber ([2]; vehicle vs OB-1): not different
